What was measured:
α-adrenergic receptor = α-adrenergic receptor antagonistic activity in the isolated rabbit aorta (norepinephrine-induced contraction); type: cell-based; conditions: for pA2: norepinephrine agonist, 37±0.5° C., pH 7.4, negative log of concentration requiring doubled norepinephrine
Description: Female rabbits, weighing 2 to 5 kg., are sacrificed by cervical dislocation. […] The aorta is placed on cylindrical sticks and cleaned of excess fat and connective tissue, then cut into 2 tissue segments approximately 20 mm in length. Each segment of aorta is then spiraled in strips 3.5 mm wide by turning the stick as a scapel is applied, while leaving a section of 2-3 mm at each end of the aorta section intact. The spiraled tissue is mounted in an aerated (as above) tissue bath of 10 ml. of Kreb's buffer and is attached to a Grass force transducer with an initial applied tension of 2 grams. The tissue is allowed to equilibrate in the tissue bath at a temperature of 37±0.5° C. until the tension on the force transducer stabilizes at 2 grams. A cumulative dose-response curve of contraction for the tissue is determined by contacting the tissue with 10 to 400 ul of the standard agonist norepinephrine in log doses of from 1×10^-8 to 1×10^-3M. […] The degree of antagonistic activity is determined by varying the concentration of the test compound and measuring its pA2 value, i.e., the negative log of the concentration of the test compound required to inhibit the norepinephrine response to the extent that the norepinephrine concentration must be doubled to obtain the maximum standard norepinephrine contractile response of the tissue.

α2-adrenergic receptor = target: T1, α2-adrenergic receptor (Rattus norvegicus, UniProt P22909); test: biochemical; type: binding; conditions: rat brain cortex, [3H] yohimbine; calculated from IC50
T1 sequence (P22909 1-465): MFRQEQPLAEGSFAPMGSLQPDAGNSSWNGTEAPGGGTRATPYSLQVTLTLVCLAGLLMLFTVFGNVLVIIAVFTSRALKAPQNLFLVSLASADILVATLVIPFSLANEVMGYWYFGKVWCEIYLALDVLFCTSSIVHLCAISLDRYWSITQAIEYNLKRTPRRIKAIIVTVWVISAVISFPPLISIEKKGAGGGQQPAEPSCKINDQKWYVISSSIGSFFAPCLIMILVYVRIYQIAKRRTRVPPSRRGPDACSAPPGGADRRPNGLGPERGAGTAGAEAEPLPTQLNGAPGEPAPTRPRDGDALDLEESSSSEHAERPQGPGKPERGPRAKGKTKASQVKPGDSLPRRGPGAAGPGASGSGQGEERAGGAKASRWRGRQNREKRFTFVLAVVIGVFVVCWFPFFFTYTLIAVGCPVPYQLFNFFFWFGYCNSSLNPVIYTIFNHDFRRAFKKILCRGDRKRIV

α1-adrenergic receptor [1] = test: radioligand binding, displacement of [3H] prazosin in rat brain cortex tissue; conditions: for Ki: [3H] prazosin, calculated from IC50; for KIα2/KIα1: ratio of KI values, α1 selectivity
α1-adrenergic receptor [2] = test: α1-adrenergic receptor selectivity and antagonism (general statements); conditions: result in words
[3] = tested on: spontaneously hypertensive rat (Okamoto rats); test: arterial blood pressure in the spontaneously hypertensive rat (tail cuff); type: in vivo; conditions: oral, 30 or 100 mg./kg.
Text: An occluding cuff, operatively connected to a programmed sphygmomanometer, is placed over the tail of each rat of the group and retained near the tail base. […] A photocell is placed distal to the cuff to detect pulses resulting from the forward motion of blood flow with each heartbeat of the rat. As the pressure in the cuff increases, measurable pulses disappear at the point where the cuff pressure equals the arterial blood pressure. Measurable pulses reappear during deflation at approximately the same pressure, and arterial blood pressure is thereby established by cuff pressure at the point of pulse appearance. The heart rate is determined from the arterial pulse wave. Doses of 30 or 100 mg./kg. of the preferred compound of Example II are administered orally to each rat of the test groups and five interference-free signals are recorded on a Model 7 Grass polygraph for each rat at various measurement periods following administration.

α1-adrenergic receptor [4] = conditions: Federation Proceedings, Vol. 41, No. 5, Abst. No. 7064; cited from earlier work

COc1cc2nc(N3CCN(C(=O)c4ccc(N)cc4)CC3)nc(N)c2cc1OC [C, 2-(4-[4-aminobenzoyl]piperazin-1-yl)-4-amino-6,7-dimethoxyquinazoline, reference compound]
pA2 (α-adrenergic receptor): 7.45
Ki (α2-adrenergic receptor): 12.4 µM
Ki (α1-adrenergic receptor [1]): 0.017 µM
KIα2/KIα1 (α1-adrenergic receptor [1]): 730.9

COc1cc2nc(N3CCN(C(=O)CCCCc4ccc(N=[N+]=[N-])cc4)CC3)nc(N)c2cc1OC [4-azidophenyl analog, 4-amino-6,7-dimethoxy-2-[4-(5-[4-azidophenyl]pentanoyl)-1-piperazinyl] quinazoline]
selectivity for α1-adrenergic receptor sites (α1-adrenergic receptor [2]): high degree of selectivity for α1 -adrenergic receptor sites
α1-antagonism (α1-adrenergic receptor [2]): produce α1 -antagonism

COc1cc2nc(N3CCN(C(=O)CCCCc4ccc(N)cc4)CC3)nc(N)c2cc1OC.Cl.Cl [Example II, 4-amino-6,7-dimethoxy-2-[4-(5-[4-aminophenyl]pentanoyl)-1-piperazinyl] quinazoline dihydrochloride]
selectivity for α1-adrenergic receptor sites (α1-adrenergic receptor [2]): high degree of selectivity for α1 -adrenergic receptor sites
α1-antagonism (α1-adrenergic receptor [2]): produce α1 -antagonism
decrease of arterial blood pressure [3]: decrease the arterial blood pressure of rats of each group
pA2 (α-adrenergic receptor): 7.51
inhibition of increase in contractile force produced by norepinephrine (α-adrenergic receptor; result in words): inhibited
Ki (α2-adrenergic receptor): 4.93 µM
Ki (α1-adrenergic receptor [1]): 0.0045 µM
KIα2/KIα1 (α1-adrenergic receptor [1]): 1,094.5

COc1cc2nc(N3CCN(C(=O)c4ccco4)CC3)nc(N)c2cc1OC [prazosin, reference compound]
pA2 (α-adrenergic receptor): 8.58

COc1cc2nc(N3CCN(C(=O)c4ccc(N=[N+]=[N-])cc4)CC3)nc(N)c2cc1OC [2-(4-[4-azido-benzoyl]-piperazin-1-yl)-4-amino-6,7-dimethoxyquinazoline]
α1-adrenergic receptor inhibition upon photolysis (α1-adrenergic receptor [4]): irreversible non-competitive α1 -adrenergic receptor inhibition

From patent publication US4440769A, “2-(4-Phenylalkanoylpiperazin-1-yl) quinazoline compounds, pharmaceutical compositions and method of producing α1 antagonistic activity” (Abbott Laboratories, priority 1983, dated 1984)
